From PMC4222986 (Journal of neurochemistry, 2014)
Counter-ions that a name gives are not always drawn. Like-named read-outs stand apart in the source and are kept apart here. One block for each compound: values may come before it.

What was measured:
[1] = molecular target: T1, human D2 dopamine receptors (Homo sapiens, UniProt P14416); conditions: ref Vangveravong et al., 2006; Luedtke et al., 2012; cited from earlier work
[2] = molecular target: rat D3 dopamine receptors (Rattus norvegicus, UniProt P19020); experiment: competitive radioligand binding with [3H]LS-3-134, rD3 HEK-293
[3] = molecular target: T1, human D2 dopamine receptors; conditions: ratio of Ki values of Table I
rat striatal tissue = rat striatal tissue (Rattus norvegicus, UniProt P19020); experiment: competitive radioligand binding with [3H]LS-3-134, rat striatal tissue; conditions: Ki values [^3H]LS-3-134 rat striatum, mean ± S.E.M., n ≥ 3, Cheng & Prusoff
[4] = molecular target: T2, human D3 dopamine receptors (Homo sapiens, UniProt P35462); experiment: competitive radioligand binding with [3H]LS-3-134, hD3 HEK-293
D2 dopamine receptor = conditions: forskolin-dependent adenylyl cyclase; ref Tu et al., 2011a; cited from earlier work
D3 dopamine receptor = conditions: forskolin-dependent adenylyl cyclase; ref Tu et al., 2011a; cited from earlier work
[5] = molecular target: T2, human D3 dopamine receptors; conditions: ref Tu et al., 2011a; cited from earlier work
[6] = molecular target: T2, human D3 dopamine receptors; experiment: [125I]IABN radioligand binding, human D3 receptors stably expressed in HEK cells; conditions: ratio of Ki values of Table I
[7] = test system: hD2 and hD3 dopamine receptors expressed in HEK-293 cells; experiment: D2 and D3 dopamine receptor combination experiments; assay type: binding, human; conditions: radioligand about Kd for hD3, 37°C 30 min, (+)-butaclamol nonspecific
D2 and D3 receptors = conditions: humans; ref Tziortzi et al., 2011; Payer et al., 2014a,b; cited from earlier work
[8] = Ki values [^3H]LS-3-134 rD3-HEK 293, mean ± S.E.M., n ≥ 3, Cheng & Prusoff

Sequence of rat D3 dopamine receptors (P19020 whole entry): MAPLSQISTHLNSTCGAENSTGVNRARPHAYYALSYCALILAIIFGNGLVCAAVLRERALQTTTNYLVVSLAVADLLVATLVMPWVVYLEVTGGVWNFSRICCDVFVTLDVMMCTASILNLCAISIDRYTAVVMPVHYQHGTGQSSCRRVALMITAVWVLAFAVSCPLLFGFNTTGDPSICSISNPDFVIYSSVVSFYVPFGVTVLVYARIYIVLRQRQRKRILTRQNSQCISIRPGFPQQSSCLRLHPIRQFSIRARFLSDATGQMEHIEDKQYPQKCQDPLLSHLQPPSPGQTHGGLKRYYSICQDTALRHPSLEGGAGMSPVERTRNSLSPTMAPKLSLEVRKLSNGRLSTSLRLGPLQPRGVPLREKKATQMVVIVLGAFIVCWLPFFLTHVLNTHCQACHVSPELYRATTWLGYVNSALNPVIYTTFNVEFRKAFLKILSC
Sequence of rat striatal tissue (P19020 whole entry): as above
T1 sequence (P14416 whole entry): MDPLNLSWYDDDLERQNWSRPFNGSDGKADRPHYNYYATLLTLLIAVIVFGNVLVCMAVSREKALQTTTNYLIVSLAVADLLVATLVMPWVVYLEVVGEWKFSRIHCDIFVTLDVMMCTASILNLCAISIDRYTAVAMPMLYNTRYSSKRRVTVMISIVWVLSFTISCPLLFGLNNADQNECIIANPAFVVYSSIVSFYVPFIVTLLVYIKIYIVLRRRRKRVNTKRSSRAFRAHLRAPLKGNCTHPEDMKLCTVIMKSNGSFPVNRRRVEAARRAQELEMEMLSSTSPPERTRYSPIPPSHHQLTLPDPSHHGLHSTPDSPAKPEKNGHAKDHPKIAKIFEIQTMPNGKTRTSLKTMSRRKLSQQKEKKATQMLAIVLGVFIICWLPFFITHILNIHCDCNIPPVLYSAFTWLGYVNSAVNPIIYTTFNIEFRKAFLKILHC
T2 sequence (P35462 whole entry): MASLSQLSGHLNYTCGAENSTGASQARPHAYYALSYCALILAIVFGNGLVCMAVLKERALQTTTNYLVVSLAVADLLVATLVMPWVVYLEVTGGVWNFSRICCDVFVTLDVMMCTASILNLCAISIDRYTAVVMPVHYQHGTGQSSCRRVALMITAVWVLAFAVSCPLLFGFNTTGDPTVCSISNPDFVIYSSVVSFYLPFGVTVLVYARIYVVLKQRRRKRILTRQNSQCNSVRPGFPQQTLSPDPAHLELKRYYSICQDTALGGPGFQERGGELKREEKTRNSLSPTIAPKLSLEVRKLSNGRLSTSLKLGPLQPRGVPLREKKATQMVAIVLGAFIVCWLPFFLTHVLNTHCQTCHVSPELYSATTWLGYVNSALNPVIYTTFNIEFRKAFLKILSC

SMILES: COc1ccc2[nH]cc(CN3CCC(O)(c4ccc(SC)cc4)CC3)c2c1 [SV 293, 1-((5-methoxy-1H-indol-3-yl)methyl)-4-(4-(methylthio)phenyl)piperidin-4-ol]
selectivity for hD2 dopamine receptors compared to hD3 [1]: 100 fold | Ki [2, 8]: 892 ± 44.2 nM | Binding Selectivity D3:D2 [3]: 105 | Binding Selectivity D4:D2 [3]: 103 | Ki (rat striatal tissue): 323 ± 49.1 nM | Ki ([4]; Ki values [^3H]LS-3-134 hD3-HEK 293, mean ± S.E.M., n ≥ 3, Cheng & Prusoff): 324 ± 39.2 nM

SMILES: O=C(NCCCCN1CCN(c2ccccc2OCCF)CC1)c1ccc(-c2ccsc2)cc1 [LS-3-134]
% of full agonist activity at D2 (D2 dopamine receptor): 29% | % of full agonist activity at D3 (D3 dopamine receptor): 35%

Ki [2]: 5.71 ± 0.81 nM | Ki (rat striatal tissue): 2.46 ± 0.19 nM | Ki [4]: 1.25 ± 0.36 nM | Binding Selectivity D2:D3 [6]: 43 | Binding Selectivity D4:D3 [6]: 1120
SMILES: COc1ccccc1N1CCN(CCCCNC(=O)c2ccc(N(C)C)cc2)CC1 [WC 10, 4-(dimethylamino)-N-(4-(4-(2-methoxyphenyl)piperazin-1-yl)butyl)benzamide]
D3 vs. D2 dopamine receptor subtype binding selectivity [5]: 43 fold

SMILES: CCN1CCC[C@H]1CNC(=O)c1c(O)c(Cl)cc(Cl)c1OC (racemic) [[^3H]raclopride]
specific binding on adding increasing amounts of hD2 membranes to constant hD3 [7]: increased specific binding was observed

Ki [2, 8]: 0.12 ± 0.05 nM | Ki (rat striatal tissue): 0.37 ± 0.09 nM
SMILES: CCc1cc(Cl)c(OC)c(C(=O)NC[C@@H]2CCCN2CC)c1O [Eticlopride, S-(−)-3-chloro-5-ethyl-N-[(1-ethyl-2-pyrrolidinyl)methyl]-6-hydroxy-2-methoxybenzamide hydrochloride]

SMILES: CCCN1CCO[C@@H]2c3cc(O)ccc3CC[C@H]21 [[^11C](+)-PHNO]
receptors labelled in PET imaging (D2 and D3 receptors): label both D2 and D3 receptors

SMILES: COc1cc([125I])cc(C(=O)NC2CC3CCCC(C2)N3Cc2ccccc2)c1OC (stereo not shown) [[^125I]IABN]
specific binding on adding increasing amounts of hD2 membranes to constant hD3 [7]: increased specific binding was observed
